# Reference: patent US6589984B1, “Benzofurylpyrone derivatives” (Teijin Limited, priority 1998, dated 2003)
# Test system: Human hepatic cancer cells HepG2
# Experiment: TG production inhibiting activity (14C-acetic acid incorporation into TG) in HepG2 cells
# Type: cell-based
# Details: Homo sapiens, HepG2; group criterion, alternatives: IC50 at least 10 μM and less than 100 μM, or at least 5% and less than 30% inhibition at 1 μM, or at least 30% and less than 50% inhibition at 10 μM
# Experimental: Human hepatic cancer cells HepG2 were inoculated into a 24-well plate (Costar No. 3524) at 4×10^4 cells/well, and 1 ml of medium (eRDF medium containing 10% bovine serum (Kyokuto Chemical Co.)) was used for 6 day culturing with 5% CO2 at 37° C. After drawing off the supernatant medium, the cells were freshly rinsed with 1 ml of PBS(−) buffer solution (Takara Shuzo) and drawn off. This procedure was repeated twice and then 1 ml of fresh medium (eRDF medium) was added.
# 6-(benzofuran-2-yl)-3,5-dimethyl-4-hydroxy-2H-pyran-2-one (Example 2) was dissolved in dimethylsulfoxide (DMSO) to prepare a 20 mM sample stock solution. A diluted solution was obtained by diluting the sample solution with DMSO.
# To the cells prepared above there were added the sample stock solution or its diluted solution at 5 μl per well and 10 μl of ^14C-acetic acid solution (a solution of Amersham Code No. CFA13 diluted 4.4-fold with PBS(−) buffer), and culturing was carried out for one day with 5% CO2 at 37° C.
# After the culturing was completed, the culture solution was removed, and 1 ml of extraction solution (a mixture of n-hexane and isopropyl alcohol at 2:1) was added for extraction treatment on the lipid components in the cells. After the treatment, the extract containing the obtained lipid components was air-dried, the residue was redissolved in 20 μl of a mixed solution of n-hexane and ethyl acetate at 9:1, and the solution was spotted on a thin-layer chromatography plate (S319, Tokyo Kasei) and developed by thin-layer chromatography with the mixed solution mentioned above. After air-drying, the lipid components were colored with iodine vapor, the portion corresponding to TG was cut out, and the amount of TG biosynthesized was measured with a liquid scintillation counter.
row,SMILES,IC50 [µM]
1,"CCNc1ccc2oc(-c3oc(=O)c(C)c(O)c3C)cc2c1 [Example 46, 3,5-dimethyl-6-(5-(ethylamino)benzofuran-2-yl)-4-hydroxy-2H-pyran-2-one]",10 to 100
2,"Cc1c(-c2cc3cc(OCc4ccccn4)ccc3o2)oc(=O)c(C)c1O [Example 87, 3,5-dimethyl-4-hydroxy-6-(5-(2-pyridylmethoxy)benzofuran-2-yl)-2H-pyran-2-one]",10 to 100
3,"Cc1c(-c2cc3cc(OCc4ccc(Cl)cc4)ccc3o2)oc(=O)c(C)c1O [Example 79, 6-(5-(4-chlorobenzyloxy)benzofuran-2-yl)-3,5-dimethyl-4-hydroxy-2H-pyran-2-one]",10 to 100
4,"COC(=O)c1ccc2cc(-c3oc(=O)c(C)c(O)c3C)oc2c1 [Example 22, 3,5-dimethyl-4-hydroxy-6-(6-(methoxycarbonyl)benzofuran-2-yl)-2H-pyran-2-one]",10 to 100
5,"Cc1c(-c2cc3cc(OCc4cccc(Br)c4)ccc3o2)oc(=O)c(C)c1O [Example 83, 6-(5-(3-bromobenzyloxy)benzofuran-2-yl)-3,5-dimethyl-4-hydroxy-2H-pyran-2-one]",10 to 100
6,"Cc1c(-c2cc3cc(OCc4ccccc4Br)ccc3o2)oc(=O)c(C)c1O [Example 81, 6-(5-(2-bromobenzyloxy)benzofuran-2-yl)-3,5-dimethyl-4-hydroxy-2H-pyran-2-one]",10 to 100
7,"Cc1c(-c2cc3cc(OCCN4CCOCC4)ccc3o2)oc(=O)c(C)c1O [Example 115, 3,5-dimethyl-4-hydroxy-6-(5-(2-(morpholin-4-yl)ethoxy)benzofuran-2-yl)-2H-pyran-2-one]",10 to 100

# More lines, now with the values ahead:
row,IC50 [µM],SMILES
1,10 to 100,"Cc1c(-c2cc3cc(OCCCc4ccccc4)ccc3o2)oc(=O)c(C)c1O [Example 203, 3,5-dimethyl-4-hydroxy-6-(5-(3-phenylpropoxy)benzofuran-2-yl)-2H-pyran-2-one]"
2,10 to 100,"Cc1c(-c2cc3cc(OCC4CCCCC4)ccc3o2)oc(=O)c(C)c1O [Example 207, 6-(5-(cyclohexylmethoxy)benzofuran-2-yl)-3,5-dimethyl-4-hydroxy-2H-pyran-2-one]"
3,10 to 100,"Cc1c(-c2cc3cc(OCc4c(Cl)cccc4Cl)ccc3o2)oc(=O)c(C)c1O [Example 157, 6-(5-(2,6-dichlorobenzyloxy)benzofuran-2-yl)-3,5-dimethyl-4-hydroxy-2H-pyran-2-one]"
4,10 to 100,"Cc1c(-c2cc3cc(OCC4(C)COC4)ccc3o2)oc(=O)c(C)c1O [Example 187, 3,5-dimethyl-4-hydroxy-6-(5-(3-methyloxetan-3-ylmethoxy)benzofuran-2-yl)-2H-pyran-2-one]"
5,10 to 100,"CC(=O)Oc1ccc2oc(-c3oc(=O)c(C)c(OC(C)=O)c3C)cc2c1 [Example 269, 4-acetyloxy-6-(5-acetyloxybenzofuran-2-yl)-3,5-dimethyl-2H-pyran-2-one]"
6,10 to 100,"Cc1c(-c2cc3cc(OC(C)c4ccccc4C(F)(F)F)ccc3o2)oc(=O)c(C)c1O (stereo not shown) [Example 144, 3,5-dimethyl-4-hydroxy-6-(5-(1-(2-(trifluoromethyl)phenyl)ethoxy)benzofuran-2-yl)-2H-pyran-2-one]"
7,10 to 100,"Cc1c(-c2cc3cccc(O)c3o2)oc(=O)c(C)c1O [Example 281, 3,5-dimethyl-4-hydroxy-6-(7-hydroxybenzofuran-2-yl)-2H-pyran-2-one]"
8,10 to 100,"CC(=O)Oc1c(C)c(-c2cc3cccc(OC(C)=O)c3o2)oc(=O)c1C [Example 284, 4-acetyloxy-6-(7-acetyloxybenzofuran-2-yl)-3,5-dimethyl-2H-pyran-2-one]"
9,10 to 100,"COC(=O)CCOc1ccc2cc(-c3oc(=O)c(C)c(OC(C)=O)c3C)oc2c1 [Example 278, 4-acetyloxy-3,5-dimethyl-6-(6-(2-(methoxycarbonyl)ethoxy)benzofuran-2-yl)-2H-pyran-2-one]"
10,10 to 100,"COc1ccc2cc(-c3oc(=O)c(C)c(OC(C)=O)c3C)oc2c1 [Example 273, 4-acetyloxy-3,5-dimethyl-6-(6-methoxybenzofuran-2-yl)-2H-pyran-2-one]"
11,10 to 100,"CCC=CCCOc1ccc2oc(-c3oc(=O)c(C)c(O)c3C)cc2c1 [Example 179, 3,5-dimethyl-6-(5-(3-hexen-1-yloxy)benzofuran-2-yl)-4-hydroxy-2H-pyran-2-one]"

# Same assay, conditions: Homo sapiens, HepG2; group criterion, alternatives: IC50 less than 10 μM, or at least 30% inhibition at 1 μM, or at least 50% inhibition at 10 μM
row,SMILES,IC50 [µM]
1,"Cc1c(O)c(Cc2ccccc2)c(-c2cc3ccccc3o2)oc1=O [Example 36, 6-(benzofuran-2-yl)-5-benzyl-4-hydroxy-3-methyl-2H-pyran-2-one]",< 10
2,"CC(=O)Oc1c(C)c(-c2cc3cc(OCc4nccs4)ccc3o2)oc(=O)c1C [Example 59, 4-acetyloxy-3,5-dimethyl-6-(5-(2-thiazolylmethoxy)benzofuran-2-yl)-2H-pyran-2-one]",< 10
3,"Cc1c(-c2cc3ccccc3o2)oc(=O)c(C)c1OC(=O)c1ccc(CO)cc1 [Example 28, 6-(benzofuran-2-yl)-3,5-dimethyl-4-(4-hydroxymethylbenzoyloxy)-2H-pyran-2-one]",< 10
4,"Cc1c(-c2cc3cc(OCc4cccs4)ccc3o2)oc(=O)c(C)c1O [Example 138, 3,5-dimethyl-4-hydroxy-6-(5-((2-thienyl)methoxy)benzofuran-2-yl)-2H-pyran-2-one]",< 10
5,"Cc1c(-c2cc3cc(N(C)C(=O)OC(C)(C)C)ccc3o2)oc(=O)c(C)c1O [Example 255, 6-(5-(N-(t-butoxycarbonyl)-N-methylamino)benzofuran-2-yl)-3,5-dimethyl-4-hydroxy-2H-pyran-2-one]",< 10
6,"Cc1ccc(COc2ccc3oc(-c4oc(=O)c(C)c(O)c4C)cc3c2)cc1C [Example 134, 6-(5-(3,4-dimethylbenzyloxy)benzofuran-2-yl)-3,5-dimethyl-4-hydroxy-2H-pyran-2-one]",< 10
7,"Cc1c(-c2cc3ccccc3o2)oc(=O)c(C)c1OC(=O)CNC(=O)OC(C)(C)C [Example 71, 6-(benzofuran-2-yl)-4-(2-(t-butoxycarbonylamino)acetyloxy)-3,5-dimethyl-2H-pyran-2-one]",< 10
8,"Cc1c(-c2cc3cc(OCc4ccccc4C(F)(F)F)ccc3o2)oc(=O)c(C)c1O [Example 120, 3,5-dimethyl-4-hydroxy-6-(5-(2-(trifluoromethyl)benzyloxy)benzofuran-2-yl)-2H-pyran-2-one]",< 10
9,"Cc1c(-c2cc3cc(OCC4CCCN(C)C4)ccc3o2)oc(=O)c(C)c1O (stereo not shown) [Example 97, 3,5-dimethyl-4-hydroxy-6-(5-(1-methylpiperidin-3-ylmethoxy)benzofuran-2-yl)-2H-pyran-2-one]",< 10
10,"CC(=O)NC(CC(=O)N1CCOCC1)C(=O)Oc1c(C)c(-c2cc3ccccc3o2)oc(=O)c1C (stereo not shown) [Example 64, 6-(benzofuran-2-yl)-3,5-dimethyl-4-(2-acetylamino-4-(morpholin-4-yl)-4-oxobutyryloxy)-2H-pyran-2-one]",< 10
11,"Cc1c(-c2cc3ccccc3o2)oc(=O)c(C)c1OS(C)(=O)=O [Example 4, 6-(benzofuran-2-yl)-3,5-dimethyl-4-methanesulfonyloxy-2H-pyran-2-one]",< 10

# Now from value to compound:
row,IC50 [µM],SMILES
1,< 10,"Cc1c(-c2cc3ccc(OC4CCCc5ccccc54)cc3o2)oc(=O)c(C)c1O (stereo not shown) [Example 170, 3,5-dimethyl-4-hydroxy-6-(6-(1,2,3,4-tetrahydronaphthalen-1-yloxy)benzofuran-2-yl)-2H-pyran-2-one]"
2,< 10,"Cc1c(-c2cc3cc(C4CCNCC4)ccc3o2)oc(=O)c(C)c1O [Example 307, 3,5-dimethyl-4-hydroxy-6-(5-(4-piperidinyl)benzofuran-2-yl)-2H-pyran-2-one]"
3,< 10,"CC(=O)Oc1c(C)c(-c2cc3c(OCc4ccccc4)cccc3o2)oc(=O)c1C [Example 260, 4-acetyloxy-6-(4-benzyloxybenzofuran-2-yl)-3,5-dimethyl-2H-pyran-2-one]"
4,< 10,"Cc1c(-c2cc3cc(C(=O)Nc4ccc(S(N)(=O)=O)cc4)ccc3o2)oc(=O)c(C)c1O [Example 305, 3,5-dimethyl-4-hydroxy-6-(5-(4-(sulfamoyl)phenylcarbamoyl)benzofuran-2-yl)-2H-pyran-2-one]"
5,< 10,"COC(=O)c1ccc2oc(-c3oc(=O)c(C)c(O)c3C)cc2c1 [Example 290, 3,5-dimethyl-4-hydroxy-6-(5-(methoxycarbonyl)benzofuran-2-yl)-2H-pyran-2-one]"
6,< 10,"Cc1c(-c2cc3cc(N(C)C(=O)Cc4ccccc4)ccc3o2)oc(=O)c(C)c1O [Example 251, 3,5-dimethyl-4-hydroxy-6-(5-(N-methyl-N-(phenylacetyl)amino)benzofuran-2-yl)-2H-pyran-2-one]"
7,< 10,"Cc1c(-c2cc3cc(OCc4cccc(F)c4)ccc3o2)oc(=O)c(C)c1O [Example 226, 3,5-dimethyl-6-(5-(3-fluorobenzyloxy)benzofuran-2-yl)-4-hydroxy-2H-pyran-2-one]"
8,< 10,"Cc1c(-c2cc3cc(OCc4cocn4)ccc3o2)oc(=O)c(C)c1O [Example 249, 3,5-dimethyl-4-hydroxy-6-(5-(4-oxazolylmethoxy)benzofuran-2-yl)-2H-pyran-2-one]"
